Values quoted from earlier work in patent publication US6469069B1, “Propofol composition containing sulfite” (Gensia Sicor Pharmaceuticals, Inc., priority 1998, dated 2002).

Test system: likely microbial contaminants
Settings: 1% Diprivan (Zeneca) 0.1% Na2S2O5

## O=S([O-])S(=O)(=O)[O-].[Na+].[Na+] [sodium metabisulfite, Sodium metabisulfite]
  Preservative effect in propofol emulsion (in words): completely ineffectual
